Data published in ChEMBL document CHEMBL3272320, “Antidepressant and anticonvulsant activity of 1-(5-phenyl-4-oxazolin-2-yl)-4-substituted piperazines” (1976).
Active and inactive are the calls of the source. No cut-off for these calls is given here.

How the values were obtained:
Mus musculus [1] = assay: Antidepressant activity in mouse at […] after 4 hrs by Dopa potentiation test; assay type: functional, organism-based
Mus musculus [2] = assay: Anticonvulsant activity in mouse assessed as protection against tonic extensor component of audiogenic seizures at 100 mg/kg, po; assay type: functional
Mus musculus [3] = assay: Antidepressant activity in po dosed mouse after 4 hrs by Dopa potentiation test relative to pemoline; assay type: functional

SMILES | Activity (Mus musculus [1]) | Activity (Mus musculus [2]) | fold change (FC) (Mus musculus [3])
NC1=NC(=O)C(c2ccccc2)O1 (configuration not stated) [PEMOLINE] | Active | 90% | 
O=C1N=C(N2CCN(C(=O)Nc3ccccc3)CC2)OC1c1ccccc1 (configuration not stated) | Active | 50% | 
O=C1N=C(N2CCN(C(=O)/C=C/c3ccc(F)cc3)CC2)OC1c1ccccc1 (configuration not stated) | Active |  | 2
COc1cc(/C(C)=C/C(=O)N2CCN(C3=NC(=O)C(c4ccccc4)O3)CC2)cc(OC)c1OC (configuration not stated) | Active |  | 
O=C1N=C(N2CCN(C(=O)Nc3ccc(Cl)cc3)CC2)OC1c1ccccc1 (configuration not stated) | Active | 50% | 
NC(=O)N1CCN(C2=NC(=O)C(c3ccccc3)O2)CC1 (configuration not stated) | Active | 10% | 
COc1ccc(NC(=O)N2CCN(C3=NC(=O)C(c4ccccc4)O3)CC2)cc1 (configuration not stated) | Active | 20% | 
COc1cc(/C=C/C(=O)N2CCN(C3=NC(=O)C(c4ccccc4)O3)CC2)cc(OC)c1OC (configuration not stated) | Active |  | 2.5
CNC(=O)N1CCN(C2=NC(=O)C(c3ccccc3)O2)CC1 (configuration not stated) | Active | 50% | 
COc1cc(/C=C/C(=O)N2CCN(C3=NC(=O)C(c4ccccc4)O3)CC2)cc(Br)c1OC (configuration not stated) | Active |  | 3
CCN(CC)C(=O)N1CCN(C2=NC(=O)C(c3ccccc3)O2)CC1 (configuration not stated) | Active | 60% | 
COc1ccc(/C=C/C(=O)N2CCN(C3=NC(=O)C(c4ccccc4)O3)CC2)cc1 (configuration not stated) | Active |  | 
